Test results from patent publication US20200055839A1 (priority 2017, published 2020).

The compounds below were run on NL-RLuc virus (assay: Inhibition of HIV replication (NL-RLuc virus, luciferase readout in MT-2 cells)). Details: Human immunodeficiency virus 1, MT2, 120 h, MT-2 cells infected with NL-RLuc virus, 5 days of incubation, 10% FBS, at least 2 experiments.
Type: cell-based
Source text: Inhibition of HIV Replication:
A recombinant NL-RLuc proviral clone was constructed in which a section of the nef gene form NL4-3 was replaced with the Renilla Luciferase gene. This virus is fully infectious and can undergo multiple cycles of replication in cell culture. In addition, the luciferous reporter provides a simple and easy method for quantitating the extent of virus growth and consequently, the antiviral activity of test compounds. The plasmid pNLRLuc contains the proviral NL-Rluc DNA cloned into pUC18 at the PvuII site. The NL-RLuc virus was prepared by transfection of 293T cells with the plasmid pNLRLuc. Transfections were performed using the LipofectAMINE PLUS kit form Invitrogen (Carlsbad, Calif.) according to the manufacturer and the virus generated was titered in MT-2 cells. For susceptibility analyses, the titrated virus was used to infect MT-2 cells in the presence of compound, and after 5 days of incubation, cells were processed and quantitated for virus growth by the amount of expressed luciferase. Assay media was RPMI 1640 supplemented with 10% heat inactivated fetal bovine serum (FBS), 100 units/ml penicillin G/100 units/ml streptomycin, 10 mM HEPES buffer pH 7.55 and 2 mM L-glutamine. The results form at least 2 experiments were used to calculate the EC50 values. Luciferase was quantitated using the Dual Luciferase kit form Promega (Madison, Wis.). Susceptibility of viruses to compounds was determined by incubation in the presence of serial dilutions of the compound. The 50% effective concentration (EC50) was calculated by using the exponential form of the median effect equation where (Fa)=1/[1+(ED50/drug conc.)^m](Johnson V A, Byington R T. Infectivity Assay. In Techniques in HIV Research. ed. Aldovini A, Walker B D. 71-76. New York: Stockton Press. 1990).

SMILES	EC50 [nM]
Cc1ncc(-c2cc(F)c(OCCc3ccc(F)cc3)cc2F)c(N2CCC(C)(C)CC2)c1[C@H](OC(C)(C)C)C(=O)O [Example 125, (2S)-2-(tert-Butoxy)-2-(5-{2,5-difluoro-4-[2-(4-fluorophenyl)ethoxy]phenyl}-4-(4,4-dimethylpiperidin-1-yl)-2-methylpyridin-3-yl)acetic acid]	3
Cc1ncc(-c2ccncc2)c(N2CCC(C)(C)CC2)c1[C@H](OC(C)(C)C)C(=O)O [Example 141, (2S)-2-(tert-Butoxy)-2-[4-(4,4-dimethylpiperidin-1-yl)-6-methyl-[3, 4′-bipyridine]-5-yl]acetic acid]	8
Cc1ncc(-c2ccc(OCC(C)C)nc2Cl)c(N2CCC(C)(C)CC2)c1[C@H](OC(C)(C)C)C(=O)O [Example 431, (2S)-2-tert-Butoxy-2-(2′-chloro-4-(4,4-dimethylpiperidin-1-yl)-6′-isobutoxy-6-methyl-3, 3′-bipyridin-5-yl)acetic acid]	32
Cc1ncc(-c2ccc(OCCCC(C)C)cn2)c(N2CCC(C)(C)CC2)c1[C@H](OC(C)(C)C)C(=O)O [Example 345, (2S)-2-(tert-butoxy)-2-[4′-(4,4-dimethylpiperidin-1-yl)-6′-methyl-5-[(4-methylpentyl)oxy]-[2,3′-bipyridine]-5′-yl]acetic acid]	2
Cc1nc(C(=O)NS(=O)(=O)C2CC2)c(-c2ccc(OCCc3ccc(F)cc3)cc2)c(N2CCC(C)(C)CC2)c1[C@H](OC(C)(C)C)C(=O)O [Example 9, (S)-2-(tert-Butoxy)-2-(6-((cyclopropylsulfonyl)carbamoyl)-4-(4,4-dimethylpiperidin-1-yl)-5-(4-(4-fluorophenethoxy)phenyl)-2-methylpyridin-3-yl)acetic acid]	380
Cc1ncc(-c2ccc(OCc3cccc(Cl)c3)cn2)c(N2CCC(C)(C)CC2)c1[C@H](OC(C)(C)C)C(=O)O [Example 337, (2S)-2-(tert-butoxy)-2-{5-[(3-chlorophenyl)methoxy]-4′-(4,4-dimethylpiperidin-1-yl)-6′-methyl-[2,3′-bipyridine]-5′-yl}acetic acid]	2
CCc1ncc(-c2ccc(OCC(C)C)cn2)c(N2CCC(C)(C)CC2)c1[C@H](OC(C)(C)C)C(=O)O [Example 277, (S)-2-(tert-Butoxy)-2-(4′-(4,4-dimethylpiperidin-1-yl)-6′-ethyl-5-isobutoxy-[2, 3′-bipyridin]-5′-yl)acetic acid]	6
CCC(C)COc1ncc(-c2cnc(C)c([C@H](OC(C)(C)C)C(=O)O)c2N2CCC(C)(C)CC2)cc1F (stereo partly drawn) [Example 386, (2S)-2-(tert-butoxy)-2-[4-(4,4-dimethylpiperidin-1-yl)-5′-fluoro-6-methyl-6′-(2-methylbutoxy)-[3,3′-bipyridine]-5-yl]acetic acid]	6
CCCOc1ncc(-c2cnc(C)c([C@H](OC(C)(C)C)C(=O)O)c2N2CCC(C)(C)CC2)cc1F [Example 389, (2S)-2-(tert-butoxy)-2-[4-(4,4-dimethylpiperidin-1-yl)-5′-fluoro-6-methyl-6′-propoxy-[3,3′-bipyridine]-5-yl]acetic acid]	3
Cc1ccc(Nc2nc(C)c([C@H](OC(C)(C)C)C(=O)O)c(N3CCC(C)(C)CC3)c2-c2ccc(OCCc3ccc(F)cc3)cc2)nc1 [Example 78, (S)-2-(tert-Butoxy)-2-(4-(4,4-dimethylpiperidin-1-yl)-5-(4-(4-fluorophenethoxy)phenyl)-2-methyl-6-((5-methylpyridin-2-yl)amino)pyridin-3-yl)acetic acid]	6
Cc1nc(NCCn2cccn2)c(-c2ccc(OCCc3ccc(F)cc3)cc2)c(N2CCC(C)(C)CC2)c1[C@H](OC(C)(C)C)C(=O)O [Example 33, (S)-2-(6-((2-(1H-Pyrazol-1-yl)ethyl)amino)-4-(4,4-dimethylpiperidin-1-yl)-5-(4-(4-fluorophenethoxy)phenyl)-2-methylpyridin-3-yl)-2-(tert-butoxy)acetic acid]	2
